Measured values from patent EP1214345B1, “AGENTS FOR TREATING HUMAN DISEASES, ESPECIALLY FOR TREATING TUMORS SUCH AS COLONIC CANCERS AND MELANOMAS OR FOR REGENERATING TISSUE AND PROMOTING HAIR GROWTH” (MAX-DELBRÜCK-CENTRUM FÜR MOLEKULARE MEDIZIN, priority 1999, dated 2001).
pIC50: −log10 of the molar value.

Target: T1, Komplexbildung von β-Catenin und LEF-1 (Homo sapiens, UniProt P35222)
T1 construct: made in house
T1 sequence (P35222 1-781): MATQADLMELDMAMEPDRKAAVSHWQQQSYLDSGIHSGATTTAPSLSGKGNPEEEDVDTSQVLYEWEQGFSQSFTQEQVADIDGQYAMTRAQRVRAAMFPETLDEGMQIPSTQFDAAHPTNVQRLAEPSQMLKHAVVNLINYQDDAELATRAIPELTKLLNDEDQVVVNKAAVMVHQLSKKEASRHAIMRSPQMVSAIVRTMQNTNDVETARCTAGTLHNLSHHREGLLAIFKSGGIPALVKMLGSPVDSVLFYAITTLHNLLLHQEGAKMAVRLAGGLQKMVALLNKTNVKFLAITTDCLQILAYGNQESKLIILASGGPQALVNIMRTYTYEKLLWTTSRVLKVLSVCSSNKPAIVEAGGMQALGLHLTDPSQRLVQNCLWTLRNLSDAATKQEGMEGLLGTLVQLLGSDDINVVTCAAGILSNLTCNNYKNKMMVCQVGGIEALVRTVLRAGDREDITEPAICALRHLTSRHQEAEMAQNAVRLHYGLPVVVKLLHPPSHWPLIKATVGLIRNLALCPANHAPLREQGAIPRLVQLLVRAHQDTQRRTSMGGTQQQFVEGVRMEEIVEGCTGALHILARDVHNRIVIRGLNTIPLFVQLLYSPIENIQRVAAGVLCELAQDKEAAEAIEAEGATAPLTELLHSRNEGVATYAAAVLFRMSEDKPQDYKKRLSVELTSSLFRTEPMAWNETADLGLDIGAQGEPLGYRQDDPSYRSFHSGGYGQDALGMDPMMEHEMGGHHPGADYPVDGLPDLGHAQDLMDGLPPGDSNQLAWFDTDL
Test: ELISA for inhibition of complex formation of β-Catenin and LEF-1 (recombinant His-tagged proteins, detection with antibody PA2)
Assay type: binding
Details: recombinant LEF-1 adsorbed, 50-100 ng β-Catenin, 10% DMSO final, substances 1 µM to 10 mM, read-out: IC50 Hemmung der Komplexbildung von β-Catenin und LEF/TCF
Source text: Im Einzelnen wurden folgende Untersuchungen durchgerührt: • 1. Identifizierung von separaten, essentiellen Bindungsstellen von β-Catenin für die Interaktion mit LEF-1/TCF-4, mit den 20 und 15 Aminosäure-Repeats von APC oder Conductin/Axin Basierend auf der Röntgen-Kristall-Strukturanalyse der Armadillo-Domäne von β-Catenin (Huber et al., 1997) wurden ausgewählte basische und aromatische Aminosäure-Reste durch Alanin-Reste substituiert und die Punktmutanten auf Interaktion mit den Bindungspartnern von β-Catenin im Hefe-2-Hybrid-System analysiert (Abb. 1). Die Mutationen, welche spezifische Interaktionen blockieren, bilden Cluster in separaten Subregionen der Domäne. Sie markieren die essentiellen Kontaktpunkte in den spezifischen Bindungsstellen für die Interaktion mit LEF/TCF (Lys 435, Arg 469, His 470, Lys 508, Arg 515), mit den 20 Aminosäure-Repeats von APC (Trp 383, Lys 345), mit den 15 Aminosäure-Repeats von APC (Arg 386), oder mit Conductin (Phe 253, His 260, Lys 292). Die erweiterten Interaktionsstellen sind der Abb 1 zu entnehmen. • 2. Analyse der Moleküloberfläche von β-Catenin im Bereich der essentiellen Bindungsstelle für LEF/TCF Ausgehend von den Daten zur Röntgenkristallstruktur von β-Catenin wurde mit den Programmen Grasp und LUDI (MSI) die Moleküloberfläche im Bereich der Bindungsstelle berechnet. Es ist hierdurch gelungen eine hydrophobe Tasche zu identifizieren (Abb.2), die von den folgenden Aminosäuren umrandet ist: Val 358, Met 363, Ala 391, Ala 392, Thr 393, Lys 394, Gln 395, Met 398, Leu 401, Leu 402, Ile 423, Asn 426, Leu 427, Thr 428, Cys 429, Asn 430, Asn 431, Asn 434, Met 437, Val 438. Diese Tasche lokalisiert in engster Nachbarschaft zu der essentiellen Bindungsstelle für LEF/TCF. Sie ist von großer Bedeutung für die Computer-gestützte Durchmusterung von Substanzbibliotheken zur Selektion von Molekülen, die in dieser Tasche binden. Die Idee primär hydrophobe Wechselwirkungen in der Tasche zum Ausgangspunkt zu wählen, hat den energetischen Vorteil, das die Substanzen nicht mit der Hydrathülle der geladenen Aminosäure-Reste der Oberfläche kompetieren müssen. Diese Substanzen stellen somit nach gezielter Modifikation potente Therapeutika zur Behandlung von Tumoren dar, da die Interaktion von LEF/TCF mit β-Catenin ein frühes Ereignis zur Entstehung von Tumoren darstellt. Sie wurden experimentell auf ihre Fähigkeit zur Hemmung der onkogenen Interaktion getestet (ELISA) und sollen modifiziert werden. Das molekulare Modellieren der Substanzen in der Tasche basiert auf der Idee, die Wechselwirkungen in der Tasche selbst zu stabilisieren und zusätzliche Kontakte zu den essentiellen Aminosäure-Resten der LEF/TCF-Bindungsstelle zu schaffen. Durch diese Strategie sollen die Substanzen in ihrer Wirkung optimiert werden. • 3. Identifizierung von Substanzen die in der hydrophoben Tasche binden Es wurden Computer-gestützt Substanzbibliotheken durchmustert und deren Moleküle auf stabilisierende Wechselwirkungen in der hydrophoben Tasche ausgewählt. Die ausgewählten Substanzen wurden auf Hemmung der Komplexbildung von β-Catenin und LEF-1 im ELISA experimentell getestet. […] Diese Kernstruktur besteht aus einem aromatischem Ring (beim Cefamandole am Kohlenstoffatom 17, Numerierung siehe "Positiv-Liste")), einer organischen Komponente, die der Struktur des Ala-Ala Dipeptides ähnelt, und einem β-Lactam- und Thiazolring. Mit dem aromatischen Ring wurde die Substanz in der beschriebenen hydrophoben Tasche eingepaßt. […]

pIC50 | SMILES
4.00 to 4.30 | CC1=C(C(=O)O)N2C(=O)[C@@H](NC(=O)[C@H](N)c3ccc(O)cc3)[C@H]2SC1 [Cefadroxil]
4.60 | Cn1nnnc1SCC1=C(C(=O)O)N2C(=O)[C@@H](NC(=O)[C@H](O)c3ccccc3)[C@H]2SC1 [Cefamandole]
4.00 to 4.30 | Cn1nnnc1SCC1=C(C(=O)O)N2C(=O)[C@@H](NC(=O)[C@H](OC=O)c3ccccc3)[C@H]2SC1 [Cefamandole-Nafate]
4.00 | CCCCCCCCCCCCCCCCCC(=O)OC[C@H]1OC(O)[C@H](NC(C)=O)[C@@H](O[C@H](C)C(=O)N[C@@H](C)C(=O)N[C@H](CCC(=O)O)C(N)=O)[C@@H]1O (stereo partly drawn) [AC-(6-O-Stearoyl)-Muramyl-Ala-D-Isoglutamine]
4.00 to 4.30 | NC(=O)c1cc[n+](CC2=C(C(=O)O)N3C(=O)[C@@H](NC(=O)[C@@H](c4ccccc4)S(=O)(=O)[O-])[C@H]3SC2)cc1 [Cefsulodine]
